Experimental data taken from article PMC10215198, “Antibacterial Conjugates of Kanamycin A with Vancomycin and Eremomycin: Biological Activity and a New MS-Fragmentation Pattern of Cbz-Protected Amines” (Antibiotics, 2023).
In brackets after ≈: the same amount, converted by molar mass.

Key:
[1] = tested on: S. haemolyticus 602; assay: MIC, broth micro-dilution, Gram-positive clinical isolate; type: cell-based, Staphylococcus haemolyticus; settings: Mueller Hinton broth, inoculum 5 × 10^5 CFU/mL, 24 h at 36 °C
Protocol: (§1) We performed a study of antibacterial activity of the synthesized compounds 17 on a panel of clinical isolates of the Gram-positive microorganisms S. haemolyticus 602, S. aureus 3798 (VISA), and Enterococcus faecalis 560 (Van A) and against the Gram-negative strain Escherichia coli 25922 ATCC by the MTT method (Table 1).
(§2) The in vitro study was performed according to the recommendations of the European Committee on Antimicrobial Susceptibility testing. The MIC values for Gram-positive and Gram-negative bacterial strains were determined by the broth micro-dilution method using Mueller Hinton broth (Acumedia Manufacturers Inc., Lansing, MI, USA) and the National Committee for Clinical Laboratory Standards procedures as described earlier.

[2] = tested on: Escherichia coli 25922 ATCC; assay: MIC, broth micro-dilution, Gram-negative strain; type: cell-based; settings: Mueller Hinton broth, inoculum 5 × 10^5 CFU/mL, 24 h at 36 °C
Protocol: as §1, §2

[3] = tested on: Enterococcus faecalis 560 (Van A); assay: MIC, broth micro-dilution, Gram-positive clinical isolate (Van A); type: cell-based; settings: Mueller Hinton broth, inoculum 5 × 10^5 CFU/mL, 24 h at 36 °C
Protocol: as §1, §2

[4] = tested on: S. aureus 3798 (VISA); assay: MIC, broth micro-dilution, Gram-positive clinical isolate (VISA); type: cell-based, Staphylococcus aureus; settings: Mueller Hinton broth, inoculum 5 × 10^5 CFU/mL, 24 h at 36 °C
Protocol: as §1, §2

[5] = tested on: Gram-positive bacteria; settings: compared with vancomycin; cited from earlier work
From the text: Another antibiotic drug of this class, eremomycin (2), was discovered at the Gause Institute of New Antibiotics. It was isolated from Amycolatopsis orientalis subsp.

Row | Compound | MIC (Minimum Inhibitory Antibiotic Concentration), S. haemoliticus 602 [1] [µg/mL] | MIC (Minimum Inhibitory Antibiotic Concentration), E. coli 25922 ATCC [2] [µg/mL] | MIC (Minimum Inhibitory Antibiotic Concentration), E. faecalis 560 (Van A) [3] [µg/mL] | MIC (Minimum Inhibitory Antibiotic Concentration), S. aureus 3798 (VISA) [4] [µg/mL] | MIC (Minimum Inhibitory Antibiotic Concentration), E. coli 25922 ATCC ([2]; listed as 1) [µg/mL] | efficacy against Gram-positive bacteria relative to vancomycin [5] | MIC (Minimum Inhibitory Antibiotic Concentration), E. coli 25922 ATCC ([2]; listed as 2) [µg/mL]
1 | Kanamycinyl A 1-Amide of Eremomycin [Compound 7] | 0.25 | >64 | 32 | 2 |  |  | 
2 | 3,6′-Di-Cbz-Kanamycinyl A 1-Amide of Vancomycin [Compound 5] |  | >64 | 32 | 2 |  |  | 
3 | NC1CC(NC(=O)OCc2ccccc2)C(OC2OC(CNC(=O)OCc3ccccc3)C(O)C(O)C2O)C(O)C1OC1OC(CO)C(O)C(N)C1O (centres unmarked) [Compound 4, 3,6′-Di-Benzyloxycarbonyl-Kanamycin A] |  | >64 |  |  |  |  | 
4 | 3,6′-Di-Cbz-Kanamycinyl A 1-Amide of Eremomycin [Compound 6] |  | >64 | 8 | 4 |  |  | 
5 | CN[C@H](CC(C)C)C(=O)N[C@H]1C(=O)N[C@@H](CC(N)=O)C(=O)N[C@H]2C(=O)N[C@H]3C(=O)N[C@H](C(=O)N[C@H](C(=O)O)c4cc(O)cc(O)c4-c4cc3ccc4O)[C@H](O)c3ccc(c(Cl)c3)Oc3cc2cc(c3O[C@@H]2O[C@H](CO)[C@@H](O)[C@H](O)[C@H]2O[C@H]2C[C@](C)(N)[C@H](O)[C@H](C)O2)Oc2ccc(cc2Cl)[C@H]1O [Vancomycin (1), Vancomycin] | 1 (≈ 0.69 µM) | >64 | >64 | 8 (≈ 5.52 µM) | > 64 |  | 
6 | Kanamycin A [Kanamycin A (3)] |  | 4 |  |  |  |  | 
7 | CN[C@H](CC(C)C)C(=O)N[C@H]1C(=O)N[C@@H](CC(N)=O)C(=O)N[C@H]2C(=O)N[C@H]3C(=O)N[C@H](C(=O)N[C@@H](C(=O)O)c4cc(O)cc(O)c4-c4cc3ccc4O)[C@H](O[C@@H]3C[C@@](C)(N)[C@H](O)[C@@H](C)O3)c3ccc(cc3)Oc3cc2cc(c3O[C@H]2O[C@@H](CO)[C@H](O)[C@@H](O)[C@@H]2O[C@H]2C[C@](C)(N)[C@@H](O)[C@H](C)O2)Oc2ccc(cc2Cl)[C@H]1O (stereo in doubt) [Eremomycin (2), Eremomycin] | 0.25 (≈ 0.16 µM) | 64 (≈ 41.1 µM) | >64 | 16 (≈ 10.3 µM) |  | three to five times higher | > 64
